Legend:
[1] = molecular target: Hepatocyte growth factor receptor (Homo sapiens, UniProt P08581); assay: Inhibition of recombinant c-MET by HTRF assay
hERG (KCNH2) = hERG (KCNH2) (Homo sapiens, UniProt Q12809); assay: Displacement of [3H]astemizole from human ERG expressed in HEK293 cells at 10 uM; details: HEK293 cells expressing human ERG, probe [3H]astemizole
[2] = Oral bioavailability in rat at 10 mg/kg; type: ADME, organism-based; details: in vivo
[3] = AUC in rat at 10 mg/kg, iv; type: ADME, organism-based; design: dose 10 mg/kg, route intravenous; details: plasma
[4] = Clearance in rat at 10 mg/kg, iv; type: ADME, organism-based; design: dose 10 mg/kg, route intravenous; details: in vivo
[5] = Cmax in rat at 10 mg/kg, po; type: ADME, organism-based; design: dose 10 mg/kg, route oral; details: in vivo
[6] = AUC in rat at 10 mg/kg, po; type: ADME, organism-based; design: dose 10 mg/kg, route oral; details: plasma
[7] = Volume of distribution at steady state in rat at 10 mg/kg, iv; type: ADME, organism-based; design: dose 10 mg/kg, route intravenous; details: in vivo, read-out: Vdss

Chain of Hepatocyte growth factor receptor (P08581 whole entry): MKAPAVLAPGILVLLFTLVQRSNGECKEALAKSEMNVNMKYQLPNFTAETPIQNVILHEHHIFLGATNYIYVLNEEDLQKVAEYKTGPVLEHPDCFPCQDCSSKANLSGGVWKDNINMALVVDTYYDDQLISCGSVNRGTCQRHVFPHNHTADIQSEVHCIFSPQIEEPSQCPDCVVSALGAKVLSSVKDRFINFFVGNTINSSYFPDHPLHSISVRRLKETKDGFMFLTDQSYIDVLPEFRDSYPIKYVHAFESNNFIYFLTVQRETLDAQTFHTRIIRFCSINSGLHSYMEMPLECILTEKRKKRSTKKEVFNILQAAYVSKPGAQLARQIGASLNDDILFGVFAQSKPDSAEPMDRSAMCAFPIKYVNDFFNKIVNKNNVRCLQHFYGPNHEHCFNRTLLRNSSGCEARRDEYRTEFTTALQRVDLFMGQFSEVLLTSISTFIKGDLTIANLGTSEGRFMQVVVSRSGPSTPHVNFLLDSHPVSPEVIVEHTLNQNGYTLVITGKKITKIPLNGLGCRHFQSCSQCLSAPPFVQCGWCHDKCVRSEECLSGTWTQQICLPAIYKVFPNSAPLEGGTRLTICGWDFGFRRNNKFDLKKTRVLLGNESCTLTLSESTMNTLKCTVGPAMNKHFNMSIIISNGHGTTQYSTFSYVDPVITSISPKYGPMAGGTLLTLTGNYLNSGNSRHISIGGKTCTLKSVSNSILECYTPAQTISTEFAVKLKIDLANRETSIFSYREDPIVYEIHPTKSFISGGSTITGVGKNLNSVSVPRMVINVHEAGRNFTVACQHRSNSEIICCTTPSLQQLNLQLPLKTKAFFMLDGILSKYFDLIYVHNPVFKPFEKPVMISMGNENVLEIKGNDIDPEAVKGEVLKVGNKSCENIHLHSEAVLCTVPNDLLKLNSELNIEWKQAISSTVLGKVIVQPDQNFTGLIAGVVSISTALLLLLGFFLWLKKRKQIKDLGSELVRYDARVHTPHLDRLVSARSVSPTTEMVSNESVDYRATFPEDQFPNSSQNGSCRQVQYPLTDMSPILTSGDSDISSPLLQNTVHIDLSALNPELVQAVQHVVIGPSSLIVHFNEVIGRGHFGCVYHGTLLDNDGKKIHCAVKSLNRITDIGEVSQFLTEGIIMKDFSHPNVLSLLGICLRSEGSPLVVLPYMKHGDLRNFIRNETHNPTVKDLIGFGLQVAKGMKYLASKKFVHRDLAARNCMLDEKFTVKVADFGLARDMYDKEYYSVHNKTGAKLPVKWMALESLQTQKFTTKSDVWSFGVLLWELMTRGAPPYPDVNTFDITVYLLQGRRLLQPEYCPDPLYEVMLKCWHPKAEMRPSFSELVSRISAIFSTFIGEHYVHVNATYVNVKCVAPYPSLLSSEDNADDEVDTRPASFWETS
Chain of hERG (KCNH2) (Q12809 whole entry): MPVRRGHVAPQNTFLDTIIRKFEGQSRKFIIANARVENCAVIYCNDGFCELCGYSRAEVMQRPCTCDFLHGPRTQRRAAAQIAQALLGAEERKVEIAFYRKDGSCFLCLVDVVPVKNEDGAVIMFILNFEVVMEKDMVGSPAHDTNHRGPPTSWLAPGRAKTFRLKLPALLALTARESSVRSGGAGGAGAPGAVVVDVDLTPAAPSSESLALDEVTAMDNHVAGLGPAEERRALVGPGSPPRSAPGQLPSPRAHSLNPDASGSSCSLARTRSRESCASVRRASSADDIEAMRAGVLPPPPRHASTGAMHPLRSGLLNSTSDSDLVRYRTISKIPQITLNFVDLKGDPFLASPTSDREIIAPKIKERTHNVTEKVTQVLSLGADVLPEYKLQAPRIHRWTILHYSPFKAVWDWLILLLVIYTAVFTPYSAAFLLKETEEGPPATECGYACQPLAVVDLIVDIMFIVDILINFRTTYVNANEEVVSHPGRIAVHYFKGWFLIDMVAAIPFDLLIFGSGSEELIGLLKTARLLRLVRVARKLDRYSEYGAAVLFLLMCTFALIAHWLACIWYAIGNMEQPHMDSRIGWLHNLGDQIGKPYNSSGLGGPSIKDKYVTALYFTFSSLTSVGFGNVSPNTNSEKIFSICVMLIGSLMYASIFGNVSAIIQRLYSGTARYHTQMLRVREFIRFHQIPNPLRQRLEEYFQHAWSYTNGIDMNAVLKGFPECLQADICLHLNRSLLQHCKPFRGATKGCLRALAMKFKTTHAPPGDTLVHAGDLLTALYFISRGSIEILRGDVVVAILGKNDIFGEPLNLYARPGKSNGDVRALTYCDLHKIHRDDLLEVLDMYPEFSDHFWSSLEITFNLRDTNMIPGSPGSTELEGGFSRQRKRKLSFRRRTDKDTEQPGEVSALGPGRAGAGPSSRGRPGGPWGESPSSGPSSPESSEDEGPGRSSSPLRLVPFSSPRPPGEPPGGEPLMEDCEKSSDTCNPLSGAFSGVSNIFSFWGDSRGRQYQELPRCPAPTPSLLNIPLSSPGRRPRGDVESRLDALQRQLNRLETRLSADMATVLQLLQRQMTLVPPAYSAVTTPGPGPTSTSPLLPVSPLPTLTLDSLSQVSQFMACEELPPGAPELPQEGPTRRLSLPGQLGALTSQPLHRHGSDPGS

Row | Structure (SMILES) | IC50 [1] [nM] | also measured
1 | CCN(CC)C(=O)N1CCC(n2cc(-c3cnc(N)c(-c4nc5ccccc5o4)c3)cn2)CC1 | 357 | –
2 | CS(=O)(=O)N1CCC(n2cc(-c3cnc(N)c(-c4nc5ccccc5o4)c3)cn2)CC1 | 371 | –
3 | Nc1ncc(-c2ccncc2)cc1-c1nc2ccccc2o1 | 5200 | –
4 | Nc1ncc(-c2cccnc2)cc1-c1nc2ccccc2o1 | > 10000 | –
5 | Nc1ncc(-c2ccccc2)cc1-c1nc2ccccc2o1 | > 10000 | –
6 | Cn1cc(-c2cnc(N)c(-c3nc4ccccc4o3)c2)cn1 | 2100 | inhibition at 10 µM (hERG (KCNH2)): 15%
7 | Nc1ncc(-c2cnn(C3CCOCC3)c2)cc1-c1nc2ccccc2o1 | 430 | –
8 | Cn1cc(-c2cncc(-c3nc4ccccc4o3)c2)cn1 | > 10000 | –
9 | Nc1ncc(-c2cnn(CCO)c2)cc1-c1nc2ccccc2o1 | 1300 | –
10 | c1ccc2oc(-c3cncc(-c4cnn(C5CCNCC5)c4)c3)nc2c1 | > 10000 | –
11 | CNc1ncc(-c2cnn(C)c2)cc1-c1nc2ccccc2o1 | > 10000 | –
12 | Cn1cc(-c2cnc(NCc3ccccc3)c(-c3nc4ccccc4o3)c2)cn1 | > 10000 | –
13 | CNc1ncc(-c2cnn(C3CCNCC3)c2)cc1-c1nc2ccccc2o1 | > 10000 | –

The next compounds have a lower IC50 [1] than those just listed; values first:

Row | IC50 [1] [nM] | Structure (SMILES) | also measured
14 | 58 | COC(=O)N1CCC(n2cc(-c3cnc(N)c(-c4nc5ccccc5o4)c3)cn2)CC1 | –
15 | 17 | COCC(=O)N1CCC(n2cc(-c3cnc(N)c(-c4nc5ccccc5o4)c3)cn2)CC1 | –
16 | 60 | CN(C)CC(=O)N1CCC(n2cc(-c3cnc(N)c(-c4nc5ccccc5o4)c3)cn2)CC1 | –
17 | 80 | Nc1ncc(-c2cnn(C3CCNCC3)c2)cc1-c1nc2ccccc2o1 | –
18 | 7 | CCC(=O)N1CCC(n2cc(-c3cnc(N)c(-c4nc5ccccc5o4)c3)cn2)CC1 | –
19 | 140 | Nc1ncc(-c2cnn(C3CCN(C(=O)c4ccccc4)CC3)c2)cc1-c1nc2ccccc2o1 | –
20 | 3 | CC(=O)N1CCC(n2cc(-c3cnc(N)c(-c4nc5ccccc5o4)c3)cn2)CC1.Cl | bioavailability [2]: 47%; AUC [3]: 5600 ng·h/mL; clearance [4]: 30 mL/min/kg; Cmax [5]: 600 ng/mL; AUC [6]: 2700 ng·h/mL; Vd [7]: 2.4 L/kg
21 | 26 | Nc1ncc(-c2cnn(C3CCN(C(=O)CO)CC3)c2)cc1-c1nc2ccccc2o1 | –

Reference: ChEMBL document CHEMBL1177783, “Discovery of aminopyridines substituted with benzoxazole as orally active c-Met kinase inhibitors” (Bioorg Med Chem Lett, 2010)
